{"source": "patent EP4085921A1", "about": "(priority 2021, dated 2022)", "key": {"[1]": {"conditions": "as a function of the treatment time interval; Fig. 18"}}, "data": [{"smiles": "CC[C@H](C)[C@H](NC(=O)[C@H](Cc1ccc(O)cc1)NC(=O)[C@@H](NC(=O)[C@H](CCCNC(=N)N)NC(=O)[C@@H](N)CC(=O)O)C(C)C)C(=O)N[C@@H](Cc1c[nH]cn1)C(=O)N1CCC[C@H]1C(=O)O", "note": "[Angiotensin-(1-7), Asp-Arg-Val-Tyr-Ile-His-Pro]", "values": [{"measurement": "side-effects in the clinical trial", "setting": "5 to 25 mcg/kg/24h range as stated", "result": "very safe without severe Ang-(1-7)-related side-effects"}, {"measurement": "hypotension as side-effect", "setting": "Ang-(1-7) administration in the defined concentration range", "result": "not a side-effect"}, {"measurement": "averaged blood pressure (SBP, MAP, DBP)", "setting": "at 11 am and 11 pm as a function of ICU days with infusion, Fig. 10, 11", "result": "not significantly influenced"}, {"measurement": "averaged heart rate", "setting": "at 11 am and 11 pm as a function of ICU days with infusion, Fig. 14, 15", "result": "not influences"}, {"measurement": "average temperatures", "setting": "at 11 am during infusion, Fig. 16", "result": "not significantly influenced"}, {"measurement": "averaged Angiotensin-(1-7) levels", "setting": "[1]", "result": "does not result in increased Ang-(1-7) levels"}]}]}
